# Assays:
# mouse = experiment: Single oral dose toxicity in mouse; format: in vivo
# [1] = test system: nerve growth factor production by L-M cells; experiment: Enhancement of nerve growth factor production in L-M cells (enzyme immunoassay); format: cell-based, Rat
# Protocol: Rat fibroblast L-M cells (ATCC CCL-1.2) were suspended in a M199 medium (Gibco) containing 0.5% Bacto Peptone (Gibco) at a concentration of 1.0 x 10^5 cells/ml. 1 ml of the suspension was inoculated into each well of a 24-well plate. The cells were cultured aseptically. After culturing for 2 days, the medium was removed and substituted with a M199 medium containing 0.5% bovine serum albumin (Sigma). Then, cyclopentenone (final concentration of 1 to 25 µM), 4HCP (Aldrich) (final concentration of 12.5µM) or dipropionylcyclopentenone (final concentration of 3.1 to 9.4 µM) was added thereto. […]
# After completion of the incubation, the concentration of nerve growth factor in the culture was measured by enzyme immunoassay (NGF Emax Immuno Assay System: Promega). […]
# [2] = test system: human insulin-like growth factor-1 (h-IGF-1) production in Hs68 cells; experiment: Enhancement of h-IGF-1 production in Hs68 cells (ELISA); format: cell-based
# Protocol: (1) Human newborn foreskin […] Hs68 cells (ATCC CRL-1635) were cultured in a D-MEM medium (Bio Whittaker) containing 10% fetal calf serum (FBS; Gibco BRL) in the presence of 5% CO2 at 37°C to saturation in a culture vessel. Then, the cells were suspended in the medium at a concentration of 3 x 10^5/ml using a trypsin-EDTA solution (Bio Whittaker). 200 µl of the suspension was dispensed into each well of a 96-well microtiter plate. When the cells were almost saturated in the culture vessel after culturing for 5 days, the medium was discarded and a medium containing 4HCP at a concentration of 40, 100 or 200 µM was added thereto. The culture supernatant was recovered at intervals of 24 hours for up to 96 hours. The effect of 4HCP on enhancement of human insulin-like growth factor-1 (h-IGF-1) production in Hs68 cells was determined using ELISA-Kit for h-IGF-1 (Diagnostic System Labo).
# (2) Hs68 cells were cultured in a D-MEM medium containing 10% fetal calf serum in the presence of 5% CO2 at 37°C to saturation in a culture vessel. Then, the cells were suspended in the medium at a concentration of 3 x 10^5/ml using a trypsin-EDTA solution. 200 µl of the suspension was dispensed into each well of a 96-well microtiter plate. When the cells were almost saturated in the culture vessel after culturing for 5 to 7 days, the medium was discarded and the medium containing cyclopentenone or GM at a concentration of 0, 2.5, 5, 10 or 20 µM was added thereto. The culture supernatant was recovered at 1, 3, 6, 12, 24 or 48 hours. The effect of cyclopentenone or GM on the production (enhancement of expression) of h-IGF-1 in Hs68 cells was determined using ELISA-Kit for h-IGF-1. […] The amount of h-IGF-1 produced 6 hours after the addition was about twice the amount for the control with no addition. […] (3) Hs68 cells were cultured in a D-MEM medium containing 10% fetal calf serum in the presence of 5% CO2 at 37°C to saturation in a culture vessel. Then, the cells were suspended in the medium at a concentration of 3 x 10^5/ml using a trypsin-EDTA solution. 200 µl of the suspension was dispensed into each well of a 96-well microtiter plate. When the cells were almost saturated in the culture vessel after culturing for 5 to 7 days, the medium was discarded and the medium containing 4HCP, a compound of formula (XVIII) (4HCP-GSH) or glutathione (GSH) at a concentration of 0, 25, 50, 100 or 200 µM was added thereto. The culture supernatant was recovered at 1, 3, 6, 12, 24 or 48 hours. The effect on the production (enhancement of expression) of h-IGF-1 in Hs68 cells was determined using ELISA-Kit for h-IGF-1. As a result, when 4HCP was added at a concentration of 25 to 200 µM, h-IGF production in Hs68 cells became maximal at 1 hour and decreased thereafter as the time went by. […] Significant enhancement of h-IGF-1 production was observed when cultured for 10 to 30 minutes. […]
# [3] = single dose orally administered to a mouse at 100 mg/kg
# [4] = Example 3-(3): 100 µM, cultivation time 1 hour, control 7.2
# [5] = Example 3-(3): 100 µM, cultivation time 3 hour, control 8.9
# [6] = Example 3-(3): 100 µM, cultivation time 6 hour, control 6.3
# [7] = Example 3-(3): 100 µM, cultivation time 12 hour, control 0
# [8] = Example 3-(3): 100 µM, cultivation time 24 hour, control 0
# [9] = Example 3-(3): 100 µM, cultivation time 48 hour, control 0
# [10] = Example 3-(3): 200 µM, cultivation time 1 hour, control 7.2
# [11] = Example 3-(3): 200 µM, cultivation time 3 hour, control 8.9
# [12] = Example 3-(3): 200 µM, cultivation time 6 hour, control 6.3
# [13] = Example 3-(3): 200 µM, cultivation time 12 hour, control 0
# [14] = Example 3-(3): 200 µM, cultivation time 24 hour, control 0
# [15] = Example 3-(3): 200 µM, cultivation time 48 hour, control 0
compound,measurement,setting,value
O=C(OC1C=CC(=O)C1OC(=O)c1ccccc1)c1ccccc1 (stereo not drawn),death after single oral dose,mouse; [3],no example of death was observed
"CC(C)(C)OC1C=CC(=O)C1OC(C)(C)C (stereo not drawn) [4,5-di-t-butylcyclopentenone ether]",death after single oral dose,"mouse; mouse, in vivo, po, 100 mg/kg",no example of death was observed
"O=C1C=CC(O)C1 (stereo not drawn) [4HCP, 4-hydroxy-2-cyclopenten-1-one]",Nerve growth factor concentration,"[1]; 12.5 µM, 24 hours, 0 µM control 0.138 (Table 2)",0.327 ng/mL
same,production of nerve growth factor by L-M cells (result in words),[1]; 24 hours incubation,enhanced the production of nerve growth factor by L-M cells in a concentration-dependent manner
same,Activity of enhancing h-IGF-1 production,"[2]; Example 3-(1): 40 µM, cultivation time 24 hour, control 0",0 ng/mL
same,Activity of enhancing h-IGF-1 production,"[2]; Example 3-(1): 40 µM, cultivation time 48 hour, control 0",0 ng/mL
same,Activity of enhancing h-IGF-1 production,"[2]; Example 3-(1): 40 µM, cultivation time 72 hour, control 0",0 ng/mL
same,Activity of enhancing h-IGF-1 production,"[2]; Example 3-(1): 40 µM, cultivation time 96 hour, control 0",0 ng/mL
same,time at which the activity of enhancing h-IGF production in Hs68 cells became maximal,"[2]; Example 3-(1): 100 µM or more, sampled at 24, 48, 72, 96 hours",24 h
same,Activity of enhancing h-IGF-1 production,"[2]; Example 3-(1): 100 µM, cultivation time 24 hour, control 0",39.9 ng/mL
same,Activity of enhancing h-IGF-1 production,"[2]; Example 3-(1): 100 µM, cultivation time 48 hour, control 0",10.0 ng/mL
same,Activity of enhancing h-IGF-1 production,"[2]; Example 3-(1): 100 µM, cultivation time 72 hour, control 0",9.6 ng/mL
same,Activity of enhancing h-IGF-1 production,"[2]; Example 3-(1): 100 µM, cultivation time 96 hour, control 0",4.4 ng/mL
same,Activity of enhancing h-IGF-1 production,"[2]; Example 3-(1): 200 µM, cultivation time 24 hour, control 0",37.9 ng/mL
same,Activity of enhancing h-IGF-1 production,"[2]; Example 3-(1): 200 µM, cultivation time 48 hour, control 0",10.4 ng/mL
same,Activity of enhancing h-IGF-1 production,"[2]; Example 3-(1): 200 µM, cultivation time 72 hour, control 0",9.9 ng/mL
same,Activity of enhancing h-IGF-1 production,"[2]; Example 3-(1): 200 µM, cultivation time 96 hour, control 0",4.2 ng/mL
same,Activity of enhancing IGF-1 production,"[2]; Example 3-(3): 25 µM, cultivation time 1 hour, control 7.2",30.6 ng/mL
same,Activity of enhancing IGF-1 production,"[2]; Example 3-(3): 25 µM, cultivation time 3 hour, control 8.9",29.5 ng/mL
same,Activity of enhancing IGF-1 production,"[2]; Example 3-(3): 25 µM, cultivation time 6 hour, control 6.3",9.6 ng/mL
same,Activity of enhancing IGF-1 production,"[2]; Example 3-(3): 25 µM, cultivation time 12 hour, control 0",0 ng/mL
same,Activity of enhancing IGF-1 production,"[2]; Example 3-(3): 25 µM, cultivation time 24 hour, control 0",0 ng/mL
same,Activity of enhancing IGF-1 production,"[2]; Example 3-(3): 25 µM, cultivation time 48 hour, control 0",0 ng/mL
same,Activity of enhancing IGF-1 production,"[2]; Example 3-(3): 50 µM, cultivation time 1 hour, control 7.2",49.5 ng/mL
same,Activity of enhancing IGF-1 production,"[2]; Example 3-(3): 50 µM, cultivation time 3 hour, control 8.9",42.1 ng/mL
same,Activity of enhancing IGF-1 production,"[2]; Example 3-(3): 50 µM, cultivation time 6 hour, control 6.3",27.8 ng/mL
same,Activity of enhancing IGF-1 production,"[2]; Example 3-(3): 50 µM, cultivation time 12 hour, control 0",0 ng/mL
same,Activity of enhancing IGF-1 production,"[2]; Example 3-(3): 50 µM, cultivation time 24 hour, control 0",0 ng/mL
same,Activity of enhancing IGF-1 production,"[2]; Example 3-(3): 50 µM, cultivation time 48 hour, control 0",0 ng/mL
same,expression of h-IGF-1 (result in words),"[2]; Example 3-(3): 100 µM or more, at 48 hours",expression of h-IGF-1 was observed
same,Activity of enhancing IGF-1 production,[2]; [4],52.8 ng/mL
same,Activity of enhancing IGF-1 production,[2]; [5],47.2 ng/mL
same,Activity of enhancing IGF-1 production,[2]; [6],31 ng/mL
same,Activity of enhancing IGF-1 production,[2]; [7],22.1 ng/mL
same,Activity of enhancing IGF-1 production,[2]; [8],25.6 ng/mL
same,Activity of enhancing IGF-1 production,[2]; [9],32 ng/mL
same,Activity of enhancing IGF-1 production,[2]; [10],59.2 ng/mL
same,Activity of enhancing IGF-1 production,[2]; [11],51.7 ng/mL
same,Activity of enhancing IGF-1 production,[2]; [12],44.4 ng/mL
same,Activity of enhancing IGF-1 production,[2]; [13],42.1 ng/mL
same,Activity of enhancing IGF-1 production,[2]; [14],50.3 ng/mL
same,Activity of enhancing IGF-1 production,[2]; [15],50.2 ng/mL
same,time at which h-IGF production in Hs68 cells became maximal,"[2]; Example 3-(3): 25 to 200 µM, sampled at 1 to 48 hours",1 h
same,death after single oral dose,"mouse; mouse, in vivo, po, 100 mg/kg",no example of death was observed
NC(CCC(=O)NC(CSC1CC(=O)CC1O)C(=O)NCC(=O)O)C(=O)O (stereo not drawn) [4HCP-GSH],Activity of enhancing IGF-1 production,[2]; [4],8.4 ng/mL
same,Activity of enhancing IGF-1 production,[2]; [5],12 ng/mL
same,Activity of enhancing IGF-1 production,[2]; [6],10.6 ng/mL
same,Activity of enhancing IGF-1 production,[2]; [7],6.1 ng/mL
same,Activity of enhancing IGF-1 production,[2]; [8],6.7 ng/mL
same,Activity of enhancing IGF-1 production,[2]; [9],1.4 ng/mL
same,Activity of enhancing IGF-1 production,[2]; [10],33.3 ng/mL
same,Activity of enhancing IGF-1 production,[2]; [11],37.9 ng/mL
same,Activity of enhancing IGF-1 production,[2]; [12],24.7 ng/mL
same,Activity of enhancing IGF-1 production,[2]; [13],20.4 ng/mL
same,Activity of enhancing IGF-1 production,[2]; [14],20.9 ng/mL
same,Activity of enhancing IGF-1 production,[2]; [15],27.8 ng/mL
same,activity of enhancing h-IGF-1 (result in words),[2]; Example 3-(3): 100 to 200 µM,exhibit an activity of enhancing h-IGF-1 in a concentration-dependent manner
CCCCCC(=O)OC1C=CC(=O)C1OC(=O)CCCCC (stereo not drawn) [dihexanoylcyclopentenone],death after single oral dose,mouse; [3],no example of death was observed
"N[C@@H](CCC(=O)N[C@@H](CS)C(=O)NCC(=O)O)C(=O)O [glutathione, reference compound]",activity of enhancing h-IGF-1 (result in words),"[2]; Example 3-(3): glutathione alone added, 25 to 200 µM",no significant activity of enhancing h-IGF-1 was observed
di-2-hexenoylcyclopentenone,death after single oral dose,mouse; [3],no example of death was observed

# From EP1170007A1, “REMEDIES” (Takara Shuzo Co, Ltd., priority 1999, dated 2000)
